Patent publication US20230031280A1, “GLP-2 FUSION POLYPEPTIDES AND USES FOR TREATING AND PREVENTING GASTROINTESTINAL CONDITIONS” (SHIRE-NPS PHARMACEUTICALS, INC., priority 2017, published 2023)
Where two headings read alike, the source gives them in different places.

Legend:
[1] = biological target: monomer/dimer self-association; assay: Microscale thermophoresis (MST) monomer/dimer equilibrium; type: physicochemical
Procedure: (§1) Microscale thermophoresis (MST) and nano differential scanning fluorimetry (NanoDSF) were performed to characterize the dimer-monomer transition. MST was used to determine the monomer/dimer equilibrium dissociation constant Kd. MST is based on thermodriven diffusion of molecules while NanoDSF is based on Trp fluorescence and is commonly used for thermostability Tm.

[2] = biological target: GLP-2-Fc self-association; assay: NanoDSF at room temperature, monomer/dimer self-association; type: physicochemical
Procedure: as §1
In the NanoDSF assay, room temperature is used and one tryptophan in GLP-2 is targeted that potentially undergoes conformational changes during GLP-2-Fc self-association. Only the tryptophan fluorescence from the protein contributes to the signal. If tryptophan is buried or stable, the peak is at 330 nm and if the tryptophan is exposed or flexible, the peak is at 350 nm.

[3] = Cynomolgus monkey pharmacokinetic study; type: in vivo, cynomolgus monkeys; conditions: subcutaneous, 12.5 nmol/kg
Procedure: Pharmacokinetics studies of teduglutide, GLP-2 Peptibody B and GLP-2 Peptibody K were formed in cynomolgus monkeys with citrulline assayed as a biomarker of GLP-2 concentration. In the study, 12.5 nmol/kg teduglutide was administered subcutaneously to a group of 6 male cynomolgus monkeys at day 1. Then for one set of 2 monkeys, 25 nmol/kg GLP-2 Peptibody B was administered intravenously at day 7, day 21, day 28, day 35, and day 42. For another set of 3 monkeys, 25 nmol/kg GLP-2 Peptibody B was administered subcutaneously at day 7, day 21, day 28, day 35, and day 42. For another set of monkeys, 5 nmol/kg GLP-2 Peptibody K was administered intravenously (2 monkeys) and subcutaneously (3 monkeys) at day 7, day 21, day 28, day 35, and day 42. For another set of monkeys, 25 nmol/kg GLP-2 Peptibody K was administered subcutaneously (3 monkeys) and intravenously (2 monkeys) at day 7, day 21, day 28, day 35, and day 42.

[4] = cited from earlier work
[5] = Mouse pharmacokinetics of GLP-2 peptibody K274; type: in vivo; conditions: CD1 mice, Q3D over 14 days
Procedure: A pharmacokinetics analysis was performed in CD1 mice. […] Mice were divided into groups, with one group administered 0.45 mg/kg every three days (Q3D), another administered 1.5 mg/kg Q3D, another administered 4.5 mg/kg Q3D, and another administered 15 mg/kg Q3D over a 14 day period. After dosing was discontinued, concentrations were measured 3, 9, 14, and 21 days later.

[6] = Rat pharmacokinetic comparability with/without C-terminal lysine; type: in vivo, Sprague-Dawley rats; conditions: 1 mg/kg, intravenous and subcutaneous
Procedure: 1 mg/kg of total GLP-2 peptibody K protein was administered subcutaneously to one group of six male Sprague-Dawley rats. 1 mg/kg of total GLP-2 peptibody K274 protein was administered intravenously to another group of six male Sprague-Dawley rats. 1 mg/kg of total GLP-2 peptibody B protein was administered subcutaneously to a third group of five male Sprague-Dawley rats. 1 mg/kg of total GLP-2 peptibody B264 protein was administered subcutaneously to a fourth group of five male Sprague-Dawley rats.
For all of the above groups, plasma samples were taken pre-dose, and at the following time points post-dose: 5 minutes (day 1), 10 minutes (day 1), 20 minutes (day 1), 30 minutes (day 1), 1 hour (day 1), 2 hours (day 1), 6 hours (day 1), 24 hours (day 2), 48 hours (day 3), 72 hours (day 4), 120 hours (day 6), 168 hours (day 8), 240 hours (day 11), and 336 hours (day 15).
Tables showing the pharmacokinetic data comparing intravenously administered GLP-2 peptibody K and GLP-2 peptibody K274 are in FIG. 10B. Tables showing the pharmacokinetic data comparing subcutaneously administered GLP-2 peptibody K and GL-2 peptibody K274 are in FIG. 10C.

CD-1 mice [7] = assay: Pharmacodynamic plateau study (small intestine weight); type: in vivo; conditions: female CD-1 mice
Procedure: Various doses of GLP-2 peptibody K274 were analyzed in female CD-1 mice to assess the pharmacodynamic plateau, with the primary endpoint a measurement of the small intestinal weight relative to the total body weight and a histology study of the length of villi. Eight groups of six females each were formed. In two groups, only the vehicle was administered Q3D for as a negative control. In four groups, the following doses were administered Q3D over 14 days: 0.45 mg/kg, 1.5 mg/kg, 4.5 mg/kg and 15 mg/kg. In one additional group, 4.5 mg/kg was administered Q3D for 14 days with the study ending four days later at day 18. In another additional group, 4.5 mg/kg was administered Q3D for 14 days with the study ending seven days later at day 21.
For the primary endpoint, the small intestine weight in grams is shown in FIG. 12A, the small intestine weight normalized to body weight is shown in FIG. 12B, and the colon weight normalized to body weight is shown in FIG. 12C. A dose of 4.5 mg/kg had maximum effect.
FIG. 13B is a graph depicting the percentage change in small intestine weight for both vehicle and GLP-2 peptibody K274.

CD-1 mice [8] = assay: Histology study of villi length, washout period; type: in vivo, female CD-1 mice; conditions: 4.5 mg/kg Q3D over 14 days, days 15, 18, 21
Procedure: Various doses of GLP-2 peptibody B264 were analyzed to assess the pharmacodynamic plateau, with the primary endpoint a measurement of the small intestinal weight relative to the total body weight and a histology study of the length of villi. 11 groups of six female CD-1 mice each were formed.
For histology, four micron paraffin sections were prepared for H&E and Ki67 IHC staining. After whole slide scanning, an imagescope was used to measure villi length and crypt depth, and to analyze Ki67. The antibody against Ki67 is a rabbit antibody sold by Adcam®, catalog number ab 616667. The antibody was used at a working concentration of 1:100 and was detected using a Leica® Refine Kit.
The first day after the washout period ends is day 15, the second day is day 16, etc. Day 2 of the washout period corresponds with day 15. Day 5 of the washout period corresponds with day 18. Day 8 of the washout period corresponds with day 21. D15, D18, and D21 correspond to days 15, 18 and 21 on which the villi length was measured.

mice = assay: Fat (triglyceride) tolerance test with olive oil bolus; type: in vivo; conditions: female mice, 4.5 mg/kg every 3 days for 13 days, olive oil bolus 10 mL/kg, vs vehicle
Procedure: A fat tolerance assay was performed in mice to assess the ability of GLP-2 peptibody K274 to promote absorption of dietary fats. Dietary fat is hydrolyzed into free fatty acids and glycerides, which are transported through the intestinal villi and absorbed by enterocytes. The enterocytes synthesize the triglycerides, which then enter the bloodstream. Such postprandial triglycerides peak in the bloodstream at about 3 hours after ingestion of a fat-rich meal.
It is hypothesized that GLP-2 peptibody K274, by enhancing length of the intestinal villi, would improve the absorption of fatty acids in a mouse model of short bowel syndrome. Assaying for an increase in peak postprandial triglycerides allows for detection of such increased absorption.
Female mice were divided into two groups of […] mice each. Both groups were treated every 3 days for a total of 13 days either with 4.5 mg/kg K274 peptibody (treated group) or vehicle (control group). On day 14 after start of treatment, mice in both groups were fasted for 6 hours followed by administration of an olive oil bolus of 10 mL/kg. Mice in the treated and control groups were divided into 6 subgroups of 6 animals each. […] Plasma triglyceride concentrations were measured on a Cobas C311 instrument (Roche) using the TRIGB assay kit.

Row | Kd [1] [µM] | Kd [2] [µM] | Vc [3] [mL/kg] | association constant (ka) [3] [day⁻¹] | Compound | half-life ([4]; SBS patients) [h] | half-life ([4]; healthy patients) | CL/F [5] [mL/day/kg] | Vc [5] [mL/kg] | pharmacokinetic comparability of K and K274 [6] | persistence of increased small intestine weight normalized to body weight after dosing (CD-1 mice [7]; 4.5 mg/kg Q3D for 14 days, washout) | dose with maximum effect on small intestine / colon weight (CD-1 mice [7]; Q3D over 14 days) [mg/kg] | persistence of villi length during washout period (CD-1 mice [8]) | postprandial triglyceride concentration in the bloodstream (mice)
1 | 24 ± 3 | 77 ± 14 | 218 | 9.67 | CC[C@H](C)[C@H](NC(=O)[C@H](Cc1ccccc1)NC(=O)[C@H](CC(=O)O)NC(=O)[C@H](CCCNC(=N)N)NC(=O)[C@H](C)NC(=O)[C@H](C)NC(=O)[C@H](CC(C)C)NC(=O)[C@H](CC(N)=O)NC(=O)[C@H](CC(=O)O)NC(=O)[C@H](CC(C)C)NC(=O)[C@@H](NC(=O)[C@@H](NC(=O)[C@H](CC(N)=O)NC(=O)[C@H](CCSC)NC(=O)[C@H](CCC(=O)O)NC(=O)[C@H](CC(=O)O)NC(=O)[C@H](CO)NC(=O)[C@H](Cc1ccccc1)NC(=O)[C@H](CO)NC(=O)CNC(=O)[C@H](CC(=O)O)NC(=O)CNC(=O)[C@@H](N)Cc1c[nH]cn1)[C@@H](C)O)[C@@H](C)CC)C(=O)N[C@@H](CC(N)=O)C(=O)N[C@@H](Cc1c[nH]c2ccccc12)C(=O)N[C@@H](CC(C)C)C(=O)N[C@H](C(=O)N[C@@H](CCC(N)=O)C(=O)N[C@H](C(=O)N[C@@H](CCCCN)C(=O)N[C@H](C(=O)N[C@H](C(=O)N[C@@H](CC(=O)O)C(=O)O)[C@@H](C)O)[C@@H](C)CC)[C@@H](C)O)[C@@H](C)CC [teduglutide] | ~1.3 | approximately 2 hours | – | – | – | – | – | – | –
2 | – | – | – | – | GLP-2 peptibody K274: GLP-2[A2G]-GGGGSGGGGSGGGGS linker-IgG1 Fc (LALA) without C-terminal lysine; SEQ ID NO: 7 | – | – | 81.3 | 213 | identical from a pharmacokinetic point of view | persisted for at least five days after dosing | 4.5 | more persistence than does GLP-2 peptibody B264 | significantly higher
